Laboratory results as given in patent publication US6569842B2 (Board of Trustees of the University of Illinois, The, priority 2000, dated 2003).
≈ marks a conversion by molar mass, not a printed value. Like-named read-outs stand apart in the source and are kept apart here.

Columns and labels:
U373 (glioma) [1] = experiment: Cytotoxicity against cultured U373 cells (SRB); format: cell-based, human; details: Method A, sample dissolved in DMSO; three days incubation
Protocol: (§1) Cytotoxicity of the crude extracts and purified compounds was determined in a number of cultured human cancer cell lines. Table 1 sets forth the various types of cancer cells evaluated using Method A. The cells were cultured in appropriate media and under standard conditions. To maintain logarithmic growth, the media were changed 24 hours prior to cytotoxic assays. On the day of the assay, the cells were harvested by trypsinization, counted, diluted in media, and added to 96-well plates containing test compounds dissolved in DMSO. The final DMSO concentration was 0.05%.
(§2) In each of Methods A-C, the plates were incubated for three days. Following the incubation period, the cells were fixed and stained with sulforhodamine B (SRB) dye. The bound dye was liberated with Tris base, and the OD515 (optical density at 515 nm) was measured on an ELISA reader. The growth of the betulinic acid-treated cells was determined by the OD515 values, and the growth was compared to the OD515 values of treated control cells of Methods A-C. Dose response studies were performed to generate ED50 values. As used herein, the term OD515 is defined as optical density at 515 nm, and the term ED50 is defined as the concentration of a compound required to reduce cell number by 50%.

[2] = system: MEL-1 human melanoma cell line; experiment: Cytotoxicity against cultured MEL-1 cells (SRB); format: cell-based
Protocol: as §1, §2

MEL-2 (melanoma) [3] = experiment: Cytotoxicity against cultured MEL-2 cells (SRB); format: cell-based, human
[4] = system: KB (human oral epidermoid carcinoma); experiment: Cytotoxicity against cultured KB cells (SRB); format: cell-based
Protocol: as §1, §2

ZR-75-1 (breast) [5] = experiment: Cytotoxicity against cultured ZR-75-1 cells (SRB); format: cell-based, human; details: Homo sapiens, ZR-75-1, 72 h, read-out: ED50 ZR 75-1
Protocol: as §1, §2

COL-2 (colon) [6] = experiment: Cytotoxicity against cultured COL-2 cells (SRB); format: cell-based, human; details: Method B, sample dissolved in tissue culture media
[7] = system: MEL-4 human melanoma cell line; experiment: Cytotoxicity against cultured MEL-4 cells (SRB); format: cell-based
Protocol: as §1, §2

ZR-75-1 (breast) [8] = experiment: Cytotoxicity against cultured ZR-75-1 cells (SRB); format: cell-based, human
UISO MEL-1 cells = experiment: In vivo study, MEL-1 tumors in athymic mice; details: 5, 50 or 250 mg/kg/dose IP betulinic acid/PVP every fourth day, six doses
Protocol: In particular, four-week-old athymic mice were injected subcutaneously in the right flank with 5.0×10^8 UISO MEL-1 cells. Drug treatment was initiated on the day following tumor cell injection and continued every fourth day for a total of six doses. […] The mice were weighed, and tumors were measured with a micrometer every third day throughout the study. Treated animals were sacrificed and autopsied on day 41, when the mean tumor volume in the control mice was approximately 0.5 cm^3. The control mice then received six doses of 50 mg/kg every fourth day beginning day 41 and were sacrificed and autopsied on day 71.
The results with respect to MEL-1 cells were similar to the results with respect to MEL-2 cells.

LNCaP (prostate) [9] = experiment: Cytotoxicity against cultured LNCaP cells (SRB); format: cell-based, human; details: Method A, sample dissolved in DMSO; three days incubation
Protocol: as §1, §2

U373 (glioma) [10] = experiment: Cytotoxicity against cultured U373 cells (SRB); format: cell-based, human
MEL-2 (melanoma) [11] = experiment: Cytotoxicity against cultured MEL-2 cells (SRB); format: cell-based, human; details: Homo sapiens, MEL2, 72 h, read-out: ED50 MEL-2
Protocol: as §1, §2

LNCaP (prostate) [12] = experiment: Cytotoxicity against cultured LNCaP cells (SRB); format: cell-based, human
[13] = system: MEL-3 human melanoma cell line; experiment: Cytotoxicity against cultured MEL-3 cells; format: cell-based; details: dose-response study
Protocol: as §2

BC-1 (breast) [14] = experiment: Cytotoxicity against cultured BC-1 cells (SRB); format: cell-based, human; details: Method B, sample dissolved in tissue culture media
[15] = mouse, in vivo, 500 mg/kg
Protocol: In particular, the data was derived from experiments wherein four week old athymic mice were injected subcutaneously in the right flank with 3.0×10^8 UISO MEL-2 cells. UISO MEL-2 is a cell line derived from metastatic melanoma from human pleural fluid. Drug treatment was initiated on the day following tumor cell injection and continued every fourth day for a total of six doses. […] The mice were weighed, and the tumors measured with a micrometer every other day throughout the study. All animals were sacrificed and autopsied on day 33, when the mean tumor volume in the control animals was approximately one cm^3.

LU-1 (lung) = experiment: Cytotoxicity against cultured LU-1 cells (SRB); format: cell-based, human; details: for IC50: Homo sapiens, Lu1, 72 h, Method A, sample dissolved in DMSO, three days incubation, read-out: ED50 LU-1
Protocol: as §1, §2

[16] = 200 and 400 mg/kg doses; cited from earlier work
BC-1 (breast) [17] = experiment: Cytotoxicity against cultured BC-1 cells (SRB); format: cell-based, human; details: Homo sapiens, BC1, 72 h, read-out: ED50 BC-1
Protocol: as §1
as §2, with “The growth of the betulinic acid-treated cells was determined by the OD515 values, and the growth was compared to the OD515 values of treated control cells of Methods A-C.” left out

HT-1080 (sarcoma) = experiment: Cytotoxicity against cultured HT-1080 cells (SRB); format: cell-based, human; details: for IC50: Homo sapiens, HT-1080, 72 h, Method A, sample dissolved in DMSO, three days incubation, read-out: ED50 HT-1080
Protocol: as §1, §2

COL-2 (colon) [18] = experiment: Cytotoxicity against cultured COL-2 cells (SRB); format: cell-based, human; details: Homo sapiens, Col2, 72 h, read-out: ED50 COL-2
Protocol: as §1, §2

[19] = system: human neuroblastoma cell lines; experiment: Cytotoxic activity against neuroblastoma cell lines; format: cell-based
A431 (squamous cells) = experiment: Cytotoxicity against cultured A431 cells (SRB); format: cell-based, human
Protocol: as §1, §2

[20] = Method A, sample dissolved in DMSO, three days incubation
[21] = Method B, sample dissolved in tissue culture media
[22] = Method C, sample dissolved in 5% aqueous bovine serum albumin

C=C(C)[C@@H]1CC[C@]2(C(=O)O)CC[C@]3(C)[C@H](CC[C@@H]4[C@@]5(C)CC[C@H](O)C(C)(C)[C@@H]5CC[C@]43C)[C@@H]12 [Betulinic acid, 3β-hydroxy-lup-20 (29)ene-28-oic acid]
ED50 U373 (U373 (glioma) [1]): >20 µg/mL | ED50 MEL-1 [2, 20]: 1.1 µg/mL (≈ 2.41 µM) | ED50 Mel1 [2, 21]: 0.9 µg/mL (≈ 1.97 µM) | ED50 Mel2 (MEL-2 (melanoma) [3]; [21]): 0.9 µg/mL (≈ 1.97 µM) | ED50 Mel2 (MEL-2 (melanoma) [3]; [22]): 1.6 µg/mL (≈ 3.5 µM) | ED50 KB [4, 21]: >20 µg/mL | ED50 KB [4, 22]: 16.6 µg/mL (≈ 36.3 µM) | IC50 (ZR-75-1 (breast) [5]; [20]): > 20 µg/mL | ED50 Col2 (COL-2 (colon) [6]): 13.3 µg/mL (≈ 29.1 µM) | ED50 MEL-4 [7, 20]: 4.8 µg/mL (≈ 10.5 µM) | ED50 Mel4 [7, 21]: 1.6 µg/mL (≈ 3.5 µM) | ED50 ZA-75-1 (ZR-75-1 (breast) [8]; [21]): 6.4 µg/mL (≈ 14 µM) | ED50 ZA-75-1 (ZR-75-1 (breast) [8]; [22]): 6.9 µg/mL (≈ 15.1 µM) | activity against MEL-1 tumors (UISO MEL-1 cells): active | ED50 LNCaP (LNCaP (prostate) [9]): >20 µg/mL | ED50 U373 (U373 (glioma) [10]; [21]): 12.1 µg/mL (≈ 26.5 µM) | ED50 U373 (U373 (glioma) [10]; [22]): 18.7 µg/mL (≈ 40.9 µM) | IC50 (MEL-2 (melanoma) [11]; [20]): ~2 µg/mL (≈ 4.38 µM) | ED50 LNCaP (LNCaP (prostate) [12]; [21]): 19.3 µg/mL (≈ 42.3 µM) | ED50 LNCaP (LNCaP (prostate) [12]; [22]): 16.6 µg/mL (≈ 36.3 µM) | ED50 MEL-3 [13]: 3.3 µg/mL (≈ 7.23 µM) | ED50 BC1 (BC-1 (breast) [14]): 11.2 µg/mL (≈ 24.5 µM) | acute toxicity and body weight [15]: without causing acute signs of toxicity or a decrease in body weight | IC50 (LU-1 (lung)): > 20 µg/mL | ED50 Lu1 (LU-1 (lung); [21]): 7.7 µg/mL (≈ 16.9 µM) | activity in Hippocratic screen [16]: inactive | IC50 (BC-1 (breast) [17]; [20]): > 20 µg/mL | IC50 (HT-1080 (sarcoma)): > 20 µg/mL | ED50 HT (HT-1080 (sarcoma); [21]): 11.3 µg/mL (≈ 24.7 µM) | ED50 HT (HT-1080 (sarcoma); [22]): 10.0 µg/mL (≈ 21.9 µM) | IC50 (COL-2 (colon) [18]; [20]): > 20 µg/mL | cytotoxic activity against human neuroblastoma cell lines [19]: excellent cytotoxic activity | ED50 A431 (A431 (squamous cells); [20]): >20 µg/mL | ED50 A431 (A431 (squamous cells); [21]): 12.1 µg/mL (≈ 26.5 µM) | ED50 A431 (A431 (squamous cells); [22]): >20 µg/mL

CC[C@@]1(O)C(=O)OCc2c1cc1n(c2=O)Cc2cc3ccccc3nc2-1 [Camptothecin]
IC50 (ZR-75-1 (breast) [5]; [20]): 0.001 µg/mL (≈ 0.00287 µM) | ED50 LNCaP (LNCaP (prostate) [9]): 0.006 µg/mL (≈ 0.0172 µM) | IC50 (MEL-2 (melanoma) [11]; [20]): 0.02 µg/mL (≈ 0.0574 µM) | IC50 (BC-1 (breast) [17]; [20]): 0.07 µg/mL (≈ 0.201 µM) | IC50 (HT-1080 (sarcoma)): 0.01 µg/mL (≈ 0.0287 µM) | IC50 (COL-2 (colon) [18]; [20]): 0.005 µg/mL (≈ 0.0144 µM)

Cc1c2ccncc2c(C)c2c1[nH]c1ccccc12 [Ellipticine]
ED50 U373 (U373 (glioma) [1]): 1.6 µg/mL (≈ 6.5 µM) | ED50 KB [4, 20]: 0.04 µg/mL (≈ 0.162 µM) | IC50 (ZR-75-1 (breast) [5]; [20]): 0.9 µg/mL (≈ 3.65 µM) | ED50 LNCaP (LNCaP (prostate) [9]): 0.8 µg/mL (≈ 3.25 µM) | IC50 (MEL-2 (melanoma) [11]; [20]): 0.9 µg/mL (≈ 3.65 µM) | IC50 (LU-1 (lung)): 0.02 µg/mL (≈ 0.0812 µM) | IC50 (BC-1 (breast) [17]; [20]): 0.2 µg/mL (≈ 0.812 µM) | IC50 (HT-1080 (sarcoma)): 1.8 µg/mL (≈ 7.31 µM) | IC50 (COL-2 (colon) [18]; [20]): 0.3 µg/mL (≈ 1.22 µM) | ED50 A431 (A431 (squamous cells); [20]): 0.5 µg/mL (≈ 2.03 µM)

COC(=O)C[C@](O)(CCCC(C)(C)O)C(=O)O[C@@H]1C(OC)=C[C@]23CCCN2CCc2cc4c(cc2[C@H]13)OCO4 [Homoharringtonine]
ED50 U373 (U373 (glioma) [1]): 0.2 µg/mL (≈ 0.367 µM) | IC50 (ZR-75-1 (breast) [5]; [20]): 0.06 µg/mL (≈ 0.11 µM) | ED50 LNCaP (LNCaP (prostate) [9]): 0.03 µg/mL (≈ 0.055 µM) | IC50 (MEL-2 (melanoma) [11]; [20]): 0.04 µg/mL (≈ 0.0733 µM) | IC50 (LU-1 (lung)): 0.03 µg/mL (≈ 0.055 µM) | IC50 (BC-1 (breast) [17]; [20]): 0.03 µg/mL (≈ 0.055 µM) | IC50 (HT-1080 (sarcoma)): 0.01 µg/mL (≈ 0.0183 µM) | IC50 (COL-2 (colon) [18]; [20]): 0.1 µg/mL (≈ 0.183 µM) | ED50 A431 (A431 (squamous cells); [20]): 0.02 µg/mL (≈ 0.0367 µM)

COc1cc([C@@H]2c3cc4c(cc3[C@H](O)[C@H]3COC(=O)[C@H]23)OCO4)cc(OC)c1OC [Podophyllotoxin]
ED50 U373 (U373 (glioma) [1]): 0.004 µg/mL (≈ 0.00965 µM) | ED50 KB [4, 20]: 0.08 µg/mL (≈ 0.193 µM) | IC50 (ZR-75-1 (breast) [5]): 0.4 µg/mL (≈ 0.965 µM) | ED50 LNCaP (LNCaP (prostate) [9]): 0.04 µg/mL (≈ 0.0965 µM) | IC50 (MEL-2 (melanoma) [11]): 0.003 µg/mL (≈ 0.00724 µM) | IC50 (BC-1 (breast) [17]): 0.03 µg/mL (≈ 0.0724 µM) | IC50 (COL-2 (colon) [18]): 0.005 µg/mL (≈ 0.0121 µM) | ED50 A431 (A431 (squamous cells); [20]): 0.03 µg/mL (≈ 0.0724 µM)
